Test results published in patent US20200375999A1, “PHARMACEUTICAL COMBINATIONS OF EGFR INHIBITORS AND METHODS OF USE THEREOF” (DANA-FARBER CANCER INSTITUTE, INC., priority 2018, published 2020).
Like-named read-outs stand apart in the source and are kept apart here.

Columns and labels:
[1] = molecular target: T1, EGFR T790M/L858R Ba/F3 cell line (Homo sapiens, UniProt P00533, T790M/L858R, cells depend on it); assay: Ba/F3 cell proliferation (MTS assay), EGFR T790M/L858R; type: cell-based, murine
T1 construct: "The constructs were shuttled into the retroviral vector JP1540 using the BD Creator™ System (BD Biosciences)
T1 sequence (P00533 whole entry T790M/L858R): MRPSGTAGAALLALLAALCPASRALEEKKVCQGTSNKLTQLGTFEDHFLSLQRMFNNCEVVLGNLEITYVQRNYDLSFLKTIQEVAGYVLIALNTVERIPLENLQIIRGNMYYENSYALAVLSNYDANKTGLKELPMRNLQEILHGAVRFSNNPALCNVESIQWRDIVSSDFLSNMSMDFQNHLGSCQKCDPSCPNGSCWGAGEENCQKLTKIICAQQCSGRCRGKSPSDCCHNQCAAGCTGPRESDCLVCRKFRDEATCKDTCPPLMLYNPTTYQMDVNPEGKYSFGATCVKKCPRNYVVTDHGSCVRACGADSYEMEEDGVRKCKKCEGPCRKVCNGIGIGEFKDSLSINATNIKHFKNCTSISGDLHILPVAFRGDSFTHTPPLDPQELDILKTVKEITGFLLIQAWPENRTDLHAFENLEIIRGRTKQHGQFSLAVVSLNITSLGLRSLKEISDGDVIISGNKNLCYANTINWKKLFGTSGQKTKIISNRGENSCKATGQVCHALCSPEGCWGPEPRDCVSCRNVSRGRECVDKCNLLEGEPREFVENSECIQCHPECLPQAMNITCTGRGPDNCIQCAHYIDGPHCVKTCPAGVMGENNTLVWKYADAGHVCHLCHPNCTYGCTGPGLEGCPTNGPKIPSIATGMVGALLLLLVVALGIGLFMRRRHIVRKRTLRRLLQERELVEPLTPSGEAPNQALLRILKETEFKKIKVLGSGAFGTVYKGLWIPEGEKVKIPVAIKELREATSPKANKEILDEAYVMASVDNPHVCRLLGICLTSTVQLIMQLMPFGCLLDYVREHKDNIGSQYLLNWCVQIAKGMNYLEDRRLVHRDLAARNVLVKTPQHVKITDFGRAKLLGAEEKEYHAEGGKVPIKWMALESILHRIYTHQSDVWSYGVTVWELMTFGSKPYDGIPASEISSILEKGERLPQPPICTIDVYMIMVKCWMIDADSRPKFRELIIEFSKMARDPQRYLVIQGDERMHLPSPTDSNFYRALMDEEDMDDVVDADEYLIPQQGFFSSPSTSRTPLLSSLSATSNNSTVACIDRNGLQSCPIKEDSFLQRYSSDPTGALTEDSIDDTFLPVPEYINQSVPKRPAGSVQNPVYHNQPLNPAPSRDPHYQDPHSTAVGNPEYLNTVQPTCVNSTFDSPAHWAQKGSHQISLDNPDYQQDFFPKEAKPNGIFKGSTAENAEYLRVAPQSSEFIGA
Protocol: All cell lines were maintained in RPM 1640 (Cellgro; Mediatech Inc., Herndon, Calif.) supplemented with 10% FBS 100 units/mL penicillin, 100 units/mL streptomycin, and 2 mM glutamine. […] The EGFR 1941R mutation was introduced via site directed mutagenesis using the Quick Change Site-Directed Mutagenesis kit (Stratagene: La Jolla, Calif.) according to the manufacturer's instructions. All constructs were confirmed by DNA sequencing. The constructs were shuttled into the retroviral vector JP1540 using the BD Creator™ System (BD Biosciences). Ba/F3 cells were infected with retrovirus and according to standard protocols, as described previously (Zhou 2009). Stable clones were obtained by selection in puromycin (2 μg/ml).
Growth and inhibition of growth was assessed by MTS assay and was performed according to previously established methods (Zhou 2009). The MTS assay is a colorimetric method for determining the number of viable cells that is based on the bioreduction of MTS by cells to a formazan product that is soluble in cell culture medium and can be detected spectrophotometrically. […] All experimental points were set up in six wells and all experiments were repeated at least three times. […] The curves were fitted using anon-linear regression model with a sigmoidal dose response.

[2] = molecular target: T2, recombinant EGFR T790M/L858R kinase (Homo sapiens, UniProt P00533, L858R/T790M); assay: HTRF-based EGFR biochemical assay
T2 construct: Constructs spanning residues 696-1022 of the human EGFR; GST (cleaved yes); made in house; host or cells: Sf9 insect cells
T2 sequence (P00533 696-1022 T790M/L858R): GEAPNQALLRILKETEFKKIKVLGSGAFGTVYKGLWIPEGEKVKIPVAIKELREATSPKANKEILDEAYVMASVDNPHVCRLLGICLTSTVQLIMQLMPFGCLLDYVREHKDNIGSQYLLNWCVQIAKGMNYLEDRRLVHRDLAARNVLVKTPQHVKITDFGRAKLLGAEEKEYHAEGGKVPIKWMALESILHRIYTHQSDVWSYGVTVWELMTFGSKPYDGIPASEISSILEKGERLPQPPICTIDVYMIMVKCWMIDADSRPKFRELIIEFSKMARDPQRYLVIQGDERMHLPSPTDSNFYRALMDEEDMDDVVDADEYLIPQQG
Protocol: EGFR kinase proteins were purified by glutathione-affinity chromatography followed by size-exclusion chromatography after cleavage with TEV or thrombin to remove the GST fusion partner following established procedures. (Yun 2008; Yun 2007).
EGFR biochemical assays were carried out using a homogeneous time-resolved fluorescence (HTRF) assay as described previously. The reaction mixtures contained 1 μM biotin-Lck-peptide substrate, wild type or mutant EGFR enzyme in reaction buffer (50 mM HEPES pH 7.1, 10 mM MgCl2, 0.01% BSA. 1 mM TCEP and 0.1 mM Na3VO4) at a final volume of 10 μL. […] All reactions were carried out at room temperature in white ProxiPlate™ 384-well Plus plates (PerkinElmer) and were quenched with 5 μL of 0.2 M EDTA at 60 min. Five μL per well of the detection reagent containing 2.5 ng PT66K (Cis-bio) and 0.05 μg SAXL (Prozyme) were added, and the plates were then incubated at room temperature for 1 hour and read with an EnVision plate reader.

[3] = system: EGFR L858R/T790M/C797S Ba/F3 cell line; assay: Ba/F3 cell proliferation (MTS assay), EGFR L858R/T790M/C797S; type: cell-based, murine
Protocol: The EGFR mutant L858R, Del E746_A750, L858R/T790M, DelE746_A750/T790M, L858R/T790M/C797S and Del/T790M/C797S Ba/F3 cells were previously described (Zhou et al., Nature 462, (2009), 1070-1074). All cell lines were maintained in RPM 1640 (Cellgro; Mediatech Inc., Herndon, Calif.) supplemented with 10% FBS 100 units/mL penicillin, 100 units/mL streptomycin, and 2 mM glutamine. L858R cells were maintained in ACL-4 media (Invitrogen, Carlsbad, Calif.) supplemented with 5% FBS, 100 units/mL penicillin, 100 units/mL streptomycin, and 2 mM glutamine. The EGFR 1941R mutation was introduced via site directed mutagenesis using the Quick Change Site-Directed Mutagenesis kit (Stratagene: La Jolla, Calif.) according to the manufacturer's instructions. All constructs were confirmed by DNA sequencing. The constructs were shuttled into the retroviral vector JP1540 using the BD Creator™ System (BD Biosciences). Ba/F3 cells were infected with retrovirus and according to standard protocols, as described previously (Zhou 2009). Stable clones were obtained by selection in puromycin (2 μg/ml).
Growth and inhibition of growth was assessed by MTS assay and was performed according to previously established methods (Zhou 2009). The MTS assay is a colorimetric method for determining the number of viable cells that is based on the bioreduction of MTS by cells to a formazan product that is soluble in cell culture medium and can be detected spectrophotometrically. Ba/F3 cells of different EGFR genotypes were exposed to treatment and the number of cells used per experiment determined empirically and has been previously established (Zhou 2009). All experimental points were set up in six wells and all experiments were repeated at least three times. […] The curves were fitted using anon-linear regression model with a sigmoidal dose response.

EC50 ([1]; absence of cetuximab, read-out: Ba/F3 cellular activity (EC50) T790M/L858R): ≥ 750 nM
Activity (% cetuximab); inhibition of proliferation ([1]; compound at 1 μM in the presence of 1 μg/mL cetuximab, EGFR T790M/L858R Ba/F3): B (25 ≤ B < 50)
Activity (% DMSO control); inhibition of proliferation ([1]; compound at 1 μM, EGFR T790M/L858R Ba/F3): D (75 ≤ D)
EC50 ([1]; read-out: Ba/F3 cellular activity (EC50) T790M/L858R + Cetuximab (1 μg/mL), presence of 1 μg/mL cetuximab): 250 to 500 nM
IC50 [2]: < 250 nM
Compound: O=C1c2cc(-c3ccc(N4CCNCC4)cc3)ccc2Nc2ccccc2N1Cc1ccccc1 [Compound I-11]
Activity (% cetuximab); inhibition of proliferation ([3]; compound at 1 μM in the presence of 1 μg/mL cetuximab, EGFR L858R/T790M/C797S): C (50 ≤ C < 75)
Activity (% DMSO control); inhibition of proliferation ([3]; compound at 1 μM, EGFR L858R/T790M/C797S Ba/F3): D (75 ≤ D)
